Assay results published in publication PMC3224021 (ACS medicinal chemistry letters, 2011).

Assays:
human GALK = human GALK (Homo sapiens, UniProt P51570); assay: in vitro GALK; type: biochemical; settings: for inhibitory activity against GALK (in words): in vitro GALK inhibitory assays, tested up to 50μM
human fibroblast cells = assay: cell tolerance / lethality in fibroblast cells; type: cell-based
[1] = test system: GALK in patient fibroblast cells; assay: intracellular inhibition of GALK measured by reduction of gal-1P accumulation; type: cell-based, human; settings: 50μM

human GALK, sequence (P51570 whole entry): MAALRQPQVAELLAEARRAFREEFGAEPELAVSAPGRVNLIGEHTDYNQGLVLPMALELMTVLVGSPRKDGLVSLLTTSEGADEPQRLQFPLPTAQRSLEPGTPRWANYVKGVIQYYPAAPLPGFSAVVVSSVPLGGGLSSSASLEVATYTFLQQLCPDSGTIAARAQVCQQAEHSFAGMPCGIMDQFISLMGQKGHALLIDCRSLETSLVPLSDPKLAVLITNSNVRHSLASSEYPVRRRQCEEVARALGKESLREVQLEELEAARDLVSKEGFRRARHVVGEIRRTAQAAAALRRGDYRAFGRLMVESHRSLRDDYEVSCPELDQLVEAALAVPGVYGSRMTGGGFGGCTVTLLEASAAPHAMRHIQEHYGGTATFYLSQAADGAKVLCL

| inhibitory activity against GALK (in words) (human GALK) | Compound | also measured |
| --- | --- | --- |
| exhibited no activity | N#CC1=C(SCc2ccc(O)cc2)SC2(CCC(C(=O)O)CC2)NC1=O (stereo not shown) [compound 9] | – |
| did not display any inhibitory activity | CC1(C)NC(=O)C(C#N)=C(SCc2ccccc2)S1 [compound 6] | – |
| inactive | CSC1=C(C#N)C(=O)NC(c2ccc(Cl)cc2Cl)S1 (stereo not shown) [compound 10] | – |
| possess inhibitory activities | CSC1=C(C#N)C(=O)NC(c2ccccc2O)S1 (stereo not shown) [compound 3] | – |
| – | CC(=O)Oc1ccc(C2NC(=O)C(C#N)=C(SCc3ccccc3)S2)cc1OC(C)=O (stereo not shown) [compound 13] | cell toxicity (human fibroblast cells; 50μM or higher concentrations): total cell lethality within hours |
| did not display any inhibitory activity | N#CC1=C(SCc2ccccc2)SCNC1=O [compound 8] | – |
| – | N#CC1=C(SCc2cccc(N3CCOCC3)c2)SC(c2ccc(O)cc2)NC1=O (stereo not shown) [compound 29] | cell tolerance / lethality (human fibroblast cells; 50μM): well-tolerated; cell lethality (human fibroblast cells; 100μM or higher): lethal to cells; inhibition of GALK / lowering of gal-1P in cells (in words) [1]: neither 27 nor 29 was able to inhibit GALK or lowered gal-1P |
| – | N#CC1=C(SCc2ccccc2)SC(c2ccc(O)c(O)c2)NC1=O (stereo not shown) [compound 2] | toxicity in patient cells (human fibroblast cells; concentration not given): toxicity |
| – | N#CC1=C(SCc2cccc(N3CCOCC3)c2)SC(c2cc(O)ccc2O)NC1=O (stereo not shown) [compound 27] | cell tolerance (human fibroblast cells; up to 100μM): well tolerated; inhibition of GALK / lowering of gal-1P in cells (in words) [1]: neither 27 nor 29 was able to inhibit GALK or lowered gal-1P |
| did not display any inhibitory activity | CC1NC(=O)C(C#N)=C(SCc2ccccc2)S1 (stereo not shown) [compound 5] | – |
| possess inhibitory activities | N#CC1=C(SCc2ccccc2)SC(c2ccc(C(=O)O)cc2)NC1=O (stereo not shown) [compound 4] | – |
| – | N#CC1=C(SCc2ccccc2)SC(c2ccccc2O)NC1=O (stereo not shown) [compound 1] | IC50 (human GALK): 1400 ± 700 nM |

| Compound | inhibitory activity against GALK (in words) (human GALK) | also measured |
| --- | --- | --- |
| CCCCSC1=C(C#N)C(=O)NC(c2ccccc2O)S1 (stereo not shown) [compound 7] | not all the compounds with hydroxyl groups on the A ring displayed inhibitory activity | – |
